Assay results from patent US20160201045A1, “Endo-xylanase and Coding Gene and Use Thereof” (SHANGHAI INSTITUTES FOR BIOLOGICAL SCIENCES CHINESE ACADEMY …, priority 2013, published 2016).

B1: Xyl7R2: fragment of Xyl7 consisting of amino acids 19-267 of SEQ ID NO:2 (protein)
chain: AQGPTWTTSTIQAYNGYDYELWNQNNAGTVSMKLTGDNGSGASAVGGTFTATWSNTQNVLFRSGKKWGSSSNQNHTQIGNMSINFAATWSSTDNVKMLGVYGWAYFTSANVPTKQENGTNASFSNQIEYYIIQDRGSYNPASGGTNAKKYGSATIDGIAYDFYVCDRINQPMLTGNGNFKQFFSVPQSASAHRTSGTISVSQHFNKWHELGMKMDGPLYEVAMKVESYTGSGSSNGSATVTKNLLTIGG
modifications: Intestinal tract metagenome of termite
B2: Xyl7R3: fragment of Xyl7 consisting of amino acids 19-272 of SEQ ID NO:2 (protein)
chain: AQGPTWTTSTIQAYNGYDYELWNQNNAGTVSMKLTGDNGSGASAVGGTFTATWSNTQNVLFRSGKKWGSSSNQNHTQIGNMSINFAATWSSTDNVKMLGVYGWAYFTSANVPTKQENGTNASFSNQIEYYIIQDRGSYNPASGGTNAKKYGSATIDGIAYDFYVCDRINQPMLTGNGNFKQFFSVPQSASAHRTSGTISVSQHFNKWHELGMKMDGPLYEVAMKVESYTGSGSSNGSATVTKNLLTIGGTTPTP
modifications: Intestinal tract metagenome of termite

Legend:
Xyl7 = experiment: Effect of different chemical agents and metal ions on the enzymatic activity of Xyl7; format: biochemical, microorganisms in termite gut; settings: for Relative Activity (%) of Xyl7: Metal Ion or Chemical Agent 10 mM, enzyme without agent = 100%; for action on Xyl7 (in words) / increase for the activity of the enzyme: 10 mmol/L
Experimental: (§1) In a 100 μl reaction system, birch xylan was added to a final concentration of 1% (w/w), and Na2HPO4/NaH2PO4 buffer (pH7.0) was added to a final concentration of 100 mM. A suitable amount of enzyme solution diluted by the abovementioned buffer was added to the reaction system for reaction at 50[…] for 10 minutes. 100 μl DNS were added to stop the reaction. For the control, 100 μl DNS were firstly added to the above reaction system before adding the enzyme solution. The reaction mixtures were subjected to a boiled water bath for 5 minutes to develop color. Absorbance value at 540 nm was detected by a microplate reader. After subtracting the absorbance value of the control from that of the sample, the enzymatic activity unit (U) was calculated based on the standard curve.
Various compounds were added into the reaction system to a final concentration of 10 mmol/L. Enzymatic activity was tested according to the above standard enzymatic activity detection steps. The specific activity value of the enzyme without treated by any chemical agent or metal ion was used as a reference value and its relative activity was defined as 100%.

[1] = Standard enzymatic activity detection (DNS method) on birch xylan; format: biochemical; settings: standard steps: 1% birch xylan, pH7.0, 50, 10 minutes
Experimental: Enzymatic activity of the endo-1,4-β-xylanase was tested by a DNS method as follows:
10 g NaOH were weighed and dissolved in about 400 ml ddH2O. 10 g dinitrosalicylic acid, 2 g phenol, 0.5 g anhydrous sodium sulfite and 200 g potassium sodium tartrate tetrahydrate were weighed and dissolved in about 300 ml ddH2O. The two solutions were mixed, diluted to 1 liter and preserved in dark.
100 μl DNS were added into each of the above standard samples. The mixtures were subjected to boiled water bath for 5 minutes for developing color. Absorbance value at 540 nm was detected by a microplate reader. Standard sample 1 was a blank control. The absorbance value of the blank control was subtracted from that of each sample and then the standard curve was plotted.
as §1
Definition of enzymatic activity unit (U): 1U refers to the amount of enzyme required for catalytically hydrolyzing xylan to produce 1 μmol xylose.
Definition of specific activity unit: enzymatic activity of 1 mg protein (U/mg).
Various substrates with a final concentration of 2% (w/w) were treated by a suitable amount of enzymes at pH7.0 and 50[…] for 10 minutes. Enzymatic activity was tested according to the above standard enzymatic activity detection steps. […] No detectable enzymatic activity was found for the other test substrates. […]

[2] = Detection on the optimum temperature; format: biochemical; settings: compared with Xyl7
Experimental: as §1
Enzymatic activity was detected according the above standard enzymatic activity detection steps at pH 7.0 and a temperature in the range of 25-80° C. The optimum temperature of Xyl7 was in the range of 50-55° C., with an activity at 50[…] slightly higher than that at 55[…]. Thus, the specific activity value of the enzyme at 50[…] was used as a reference value and its relative activity was defined as 100%. The relative activity of the enzyme at each temperature was a ratio between the specific activity value of the enzyme at each temperature and the reference value.

Molecule | Relative Activity (%) of Xyl7 (Xyl7) [%] | action on Xyl7 (in words) (Xyl7) | further results
[Al+3] [Al^3+] | 77.68 ± 2.32 | – | –
[Mg+2] [Mg^2+] | 101.53 ± 3.02 | no obvious action | –
[Mn+2] [Mn^2+] | 125.73 ± 7.8 | could activate | increase for the activity of the enzyme (Xyl7): about 20%
O=C(O)CN(CCN(CC(=O)O)CC(=O)O)CC(=O)O [EDTA] | 88.65 ± 1.62 | obviously inhibited | –
[Zn+2] [Zn^2+] | 64.88 ± 1.36 | obviously inhibited | –
[Co+2] [Co^2+] | 109.14 ± 3.45 | could activate | –
[Cu+2] [Cu^2+] | 108.69 ± 2.99 | could activate | –
[Ni+2] [Ni^2+] | 44.25 ± 4.98 | obviously inhibited | –
[K+] [K^+] | 125.6 ± 11.98 | could activate | increase for the activity of the enzyme (Xyl7): about 20%
[Fe+2] [Fe^2+] | 25.33 ± 0.46 | obviously inhibited | Relative Activity (%) of Xyl7 (Xyl7; listed as Fe^3+): 90.41 ± 3.36%
[Ba+2] [Ba^2+] | 90.71 ± 1.94 | – | –
[Ca+2] [Ca^2+] | 90.1 ± 12.82 | – | –
B1 | – | – | specific activity by the standard enzymatic activity detection steps of Example 3 [1]: 8560 U/mg
B2 | – | – | specific activity by the standard enzymatic activity detection steps of Example 3 [1]: 8775 U/mg; optimum temperature and tolerance on temperature [2]: almost identical to those of Xyl7
